Results as given in ChEMBL document CHEMBL1150019, “Synthesis and antitumor activity of novel cyclopropapyrroloindole (CPI) derivatives bearing bis(methoxycarbonyl) groups” (Bioorg Med Chem Lett, 1997).
≈ marks a conversion by molar mass, not a printed value.

Assays:
Mus musculus [1] = experiment: In vivo antitumor activity against P388 murine leukemia as percentage increase in life span as compared with the untreated at a dose of 0.125 mg/kg administered intraperitoneally; type: functional; conditions: P388, ip, route intraperitoneal
P388 = experiment: Tested in vitro for cytotoxicity as concentration required to inhibit 50 percent growth of P388 murine leukemia cells; type: functional, cell-based; conditions: Mus musculus
Mus musculus [2] = experiment: In vivo antitumor activity against P388 murine leukemia as percentage increase in life span as compared with the untreated at a dose of 1 mg/kg administered intraperitoneally; type: functional; conditions: P388, ip, route intraperitoneal
Mus musculus [3] = experiment: In vivo antitumor activity against P388 murine leukemia as percentage increase in life span as compared with the untreated at a dose of 0.25 mg/kg administered intraperitoneally; type: functional; conditions: P388, ip, route intraperitoneal
Mus musculus [4] = experiment: In vivo antitumor activity against P388 murine leukemia as percentage increase in life span as compared with the untreated at a dose of 0.625 mg/kg administered intraperitoneally; type: functional; conditions: P388, ip, route intraperitoneal
Mus musculus [5] = experiment: In vivo antitumor activity against P388 murine leukemia as percentage increase in life span as compared with the untreated at a dose of 0.5 mg/kg administered intraperitoneally; type: functional; conditions: P388, ip, route intraperitoneal
Mus musculus [6] = experiment: In vivo antitumor activity against P388 murine leukemia as percentage increase in life span as compared with the untreated at a dose of 0.063 mg/kg administered intraperitoneally; type: functional; conditions: P388, ip, route intraperitoneal

| SMILES | ILS at 0.125 mg/kg (Mus musculus [1]) [%] | IC50 (P388) [ng/mL] | further results |
| --- | --- | --- | --- |
| COC(=O)c1[nH]c2c(c1C(=O)OC)C13CC1CN(C(=O)c1cc4cc(NC(=O)c5cc6ccccc6[nH]5)ccc4[nH]1)C3=CC2=O (stereo not drawn) | 102 | – | – |
| COC(=O)c1[nH]c2c(O)cc3c(c2c1C(=O)OC)C(CCl)CN3C(=O)c1cc2cc(OC)c(OC)c(OC)c2[nH]1 (stereo not drawn) | – | 0.31 (≈ 0.542 nM) | ILS at 1 mg/kg (Mus musculus [2]): 73% |
| COC(=O)c1c(C)[nH]c2c1[C@@]13CC1CN(C(=O)c1cc4cc(OC)c(OC)c(OC)c4[nH]1)C3=CC2=O (mixture of isomers) | 80 | 0.34 | – |
| COC(=O)c1c(C)[nH]c2c(O)cc3c(c12)[C@H](CCl)CN3C(=O)c1cc2cc(OC)c(OC)c(OC)c2[nH]1 | – | 0.22 (≈ 0.417 nM) | ILS at 0.25 mg/kg (Mus musculus [3]): 74% |
| COC(=O)c1[nH]c2c(O)cc3c(c2c1C(=O)OC)C(CCl)CN3C(=O)c1cc2cc(OC)ccc2[nH]1 (stereo not drawn) | – | 0.27 (≈ 0.527 nM) | ILS at 1 mg/kg (Mus musculus [2]): 43% |
| COC(=O)c1[nH]c2c(O)cc3c(c2c1C(=O)OC)C(CCl)CN3C(=O)c1cc2cc(NC(=O)c3cc4ccccc4o3)ccc2[nH]1 (stereo not drawn) | – | 0.32 (≈ 0.499 nM) | ILS at 0.625 mg/kg (Mus musculus [4]): 115% |
| COC(=O)c1[nH]c2c(c1C(=O)OC)C13CC1CN(C(=O)c1cc4cc(NC(=O)c5cc6ccccc6o5)ccc4[nH]1)C3=CC2=O (stereo not drawn) | 79 | – | – |
| COC(=O)c1[nH]c2c(O)cc3c(c2c1C(=O)OC)C(CCl)CN3C(=O)c1cc2cc(NC(=O)c3cc4ccccc4[nH]3)ccc2[nH]1 (stereo not drawn) | – | 0.24 (≈ 0.375 nM) | ILS at 0.5 mg/kg (Mus musculus [5]): 90% |
| COC(=O)c1[nH]c2c(c1C(=O)OC)C13CC1CN(C(=O)c1cc4cc(OC)ccc4[nH]1)C3=CC2=O (stereo not drawn) | 49 | 0.63 (≈ 1.33 nM) | – |
| COC(=O)c1[nH]c2c(c1C(=O)OC)C13CC1CN(C(=O)c1cc4cc(OC)c(OC)c(OC)c4[nH]1)C3=CC2=O (stereo not drawn) | – | 0.74 (≈ 1.38 nM) | ILS at 0.063 mg/kg (Mus musculus [6]): 43% |
